Data published in US12465626B2, “Traditional Chinese medicine composition with improving cognition effect, preparation method thereof and traditional Chinese medicine preparation” (Chenland Nutritionals, Inc., priority 2019, dated 2025).

Assays:
Assay type in all cases: in vivo
[1] = tested on: mice; test: Novel object recognition test of mice
Protocol: Adaptation period: on the first day, the mice were placed in the test room for 1 hour of environmental adaptation and familiarity, and then placed in the open field box for 20 minutes (there was no object in the box), so as to eliminate the impact of the open field box on the tested mice. After the experiment of each mouse, the open field box was cleaned with 75% ethanol.
Familiarization period: on the second day (24 hours after the adaptation period), the mice were placed in the test room for 1 hour of environmental adaptation and familiarization, then two yellow cylindrical bottles of the same size and texture were placed at the left and right ends of the same side of the open field box as familiar objects, and then the mouse was put into the box with its back towards the objects. The mouse's exploration of the objects within 5 min was recorded (timing standard: the exploration time within 2 cm of the mouse's nose or mouth from the object, and its lying on the objects or just walking around the objects was not included). […]
Test period: 2 h after the familiarization period, replace a yellow cylindrical bottle in the open field box was replaced with a green conical bottle of the same size as a strange object, and then the mouse was put into the box with its back towards the objects. […] The recognition index (RI) was calculated: RI=Tn/(Tn+Tf). […]

[2] = tested on: mice; test: Step-down test of mice (scopolamine hydrobromide)
Protocol: (§1) Statistical methods: the data were analyzed by GraphPad Prism 7.01 software (GraphPad Software, Inc., San Diego, California, USA). Before the parameter test of all group tests, the data were tested by normality test (Kolmogorov-Smirnov test) and variance homogeneity test (Levene test). Except for the escape latency in water maze, all test parameters were compared between groups by non paired T-test (single tail), and the test level was set as p<0.05. The escape latency in water maze was compared between two groups by two-way analysis of variance. The post test was conducted by Sidak's multiple comparisons test, and the test level was set as p<0.05.
Test method: the grouping, sample preparation and modeling of mouse step-down test were the same as above. At the beginning of the test, the step-down training was carried out, where the adaptation was carried out for 3 min and then the power on training was carried out for 300 s. The test was conducted after 24 hours. The drug was administered 1 hour before the test, and scopolamine hydrobromide and normal saline were injected intraperitoneally 15-20 minutes before the test. Then the mouse was put on the platform and the latency of jumping off the platform for the first time and the number of errors (getting off the platform) within 300 s were recorded.

[3] = tested on: mice; test: Morris water maze test, space exploration experiment; conditions: exploration period
Protocol: as §1
(§2) Implementation method: the test procedure included two parts: directional navigation and space exploration. A total of 5 consecutive days were tested. The first part was the directional navigation experiment, which was tested on mice for 4 days, and the second part was the space exploration experiment, which was tested for 1 day. The melanin edible toner was […] to hide the platform, and it was kept in sharp contrast with the color of mice during camera shooting for easy tracking. The platform was located 0.8 cm below the water surface and the water depth was 21 cm. It was located in the NW quadrant. The water temperature in the water maze was maintained at a constant temperature of 22-24° C. with a heating rod.
Space exploration experiment: the platform was removed and each mouse was tested once for 60 s. The SE quadrant was selected and the mouse was gently put into the water facing the edge of the pool wall. The spatial memory ability of the animal was evaluated by the number of times the animal crossed the original platform position within 60 s, the run ratio and time ratio of the original platform quadrant (i.e. the ratio of the run and time of the animal's original platform quadrant to the total run and time).

[4] = tested on: mice; test: Morris water maze test, directional navigation experiment; conditions: max 60 s
Protocol: as §1, §2
Directional navigation experiment: each mouse was trained 4 times a day, with an interval of 15-20 min. During the test, the water entry point was selected in a semi random way each time. The experimenter held the mouse by hand, made it face the pool wall, and gently put it into the water. In each training, if the mouse could find the platform within 60 s, and the time spent on the platform was more than 2 S, it was regarded as the sign of successful platform search. The time spent by the mice from entering the water to successful platform search was recorded as the latency. […] After the mice boarded the platform, the mice were kept on the platform for 10 s, so that they could carry out spatial learning and memory according to the reference objects of the four quadrants, and the tension of the mice were reduced. The average value of daily latency was calculated to evaluate the acquisition ability of animals' spatial memory.

[5] = after intragastric administration

**Q.** How did the “Recognition index (x[…]SE)” value ([1]; RI=Tn/(Tn+Tf), intragastric, dose (crude drug) 1.002 g/kg (Embodiment 1, Comparative examples 1, 2), 1.200 g/kg (Comparative example 3), 0.67 tablets/kg (positive drug), model group 0.4180, control 0.5715) turn out when `C/C=C1\[C@H]2C=C(C)C[C@]1(N)c1ccc(=O)[nH]c1C2` [Positive drug, huperzine-A] was run?
**A.** Its value is 0.5341 ± 0.0428.

**Q.** What about the “Recognition index compared with the model group” value [1, 5] of the same compound?
**A.** The value was “increased significantly”.

**Q.** And the “Step-down latency compared with the model group” value [2, 5]?
**A.** The value was “significantly longer”.

**Q.** What about the “Step-down number of errors compared with the model group” value [2, 5] of the same compound?
**A.** Its value is “significantly lower”.

**Q.** What about the “Number of errors (x[…]SE)” value ([2]; errors within 300 s, doses as Table 3, model group 2.714, control 1.375) of the same compound?
**A.** The value was 1.833 ± 0.3445.

**Q.** And the Latency/s ([2]; latency of jumping off the platform, max 300 s, drug 1 hour before test, doses as Table 2, model group 42.01, control 100.3)?
**A.** Its Latency/s is 94.12 ± 29.48 s.

**Q.** And the “Stay time in target quadrant/s (x[…]SE)” value ([3]; 60 s, model group 14.15, control 17.30)?
**A.** The value was 15.04 ± 0.9555 s.

**Q.** And the “Number of crossing platform (x[…]SE)” value ([3]; within 60 s, model group 1.308, control 3.125)?
**A.** The value was 2.786 ± 0.4591.

**Q.** What about the “Escape latency compared with the model group” value [3, 5] of the same compound?
**A.** Its value is “significantly shorter”.

**Q.** What about the “Number of crossing the platform compared with the model group” value [3, 5] of the same compound?
**A.** The value was “significantly higher”.

**Q.** What about the “Escape latency/s (x[…]SE)” value ([3]; doses as Table 5, model group 39.27, control 20.05) of the same compound?
**A.** Its value is 22.91 ± 3.922 s.

**Q.** What about the “Run distance of target quadrant/mm (x[…]SE)” value ([3]; model group 2373, control 2821) of the same compound?
**A.** Its value is 2867 ± 207.6 mm.

**Q.** What about the “Escape latency First day (s) (x[…]SE)” value ([4]; first day, doses as Table 4, model group 53.2) of the same compound?
**A.** Its value is 52.7 ± 2.29 s.

**Q.** What about the “Escape latency Fourth day (s) (x[…]SE)” value ([4]; fourth day, model group 47.7) of the same compound?
**A.** Its value is 43.5 ± 2.83 s.

**Q.** What about the “Escape latency Second day (s) (x[…]SE)” value ([4]; second day, model group 44.2) of the same compound?
**A.** Its value is 44.5 ± 2.80 s.

**Q.** What about the “Escape latency Third day (s) (x[…]SE)” value ([4]; third day, model group 42.4) of the same compound?
**A.** The value was 43.6 ± 2.91 s.
